In patent US20230346961A1, “GLP-1 AND GIP RECEPTOR CO-AGONISTS” (Novo Nordisk A/S, priority 2020, published 2023):
Starred links: 1 amine or outer side, 2 acyl side, 3 side chain; linkers in the order of their positions; H or OH if unused. Non-standard residues stand in square brackets, D forms with d. Residues, ends and D or L forms follow the SMILES beside them. Groups on a side chain read outwards from the residue. *: point of attachment. C20 diacid = O=C(O)CCCCCCCCCCCCCCCCCCC(=O)*; γGlu = O=C(O)[C@H](CCC(=O)[*:2])N[*:1]; εLys = N[C@@H](CCCCN[*:1])C(=O)[*:2]; Trx = NC[C@H]1CC[C@H](C(=O)O)CC1; Aib = CC(C)(N)C(=O)O

How the values were obtained:
[1] = biological target: human glucagon receptor (Homo sapiens, UniProt P47871); experiment: cell-based
Method: (§1) The in vitro functional potency is the measure of target receptor activation in a whole cell assay.
(§2) In vitro functional potency was determined by measuring the response of the target receptor in a reporter gene assay in individual cell lines. […] When the respective receptor is activated, it results in the production of cAMP, which in turn results in expression of the luciferase protein. When assay incubation is completed, luciferase substrate (luciferin) is added resulting in the enzymatic conversion of luciferin to oxyluciferin and producing bioluminescence. The luminescence is measured as the readout for the assay.
(§3) The cells lines used in these assays were BHK cells with BHKTS13 as a parent cell line. The cell lines were derived from a clone containing the CRE luciferase element and were established by further transfection with the respective receptor to obtain the relevant cell line.
(§4) The cells were cultured at 37° C. with 5% CO2 in Cell Culture Medium. They were aliquoted and stored in liquid nitrogen. The cells were kept in continuous culture and were seeded out the day before each assay.
(§5) GLP-1R and GcgR Cell Culture Medium consisted of DMEM medium with 10% FBS, 500 μg/mL G418, and 300 μg/mL hygromycin. GIPR Cell Culture Medium consisted of DMEM medium with 10% FBS, 400 μg/mL G418, and 300 μg/mL hygromycin. Assay Buffer consisted of DMEM w/o phenol red, 10 mM Hepes, 1×Glutamax, 1% ovalbumin, and 0.1% Pluronic F-68 with the addition of HSA at twice the final assay concentration.
(§6) • 1) Cells were plated at 5000 cells/well and incubated overnight in the assay plate. • 2) Cells were washed once in DPBS. • 3) Stocks of the test compounds and reference compounds in concentrations ranging from 100-300 μM were diluted 1:150 in Assay Buffer. Compounds were then diluted 1:10 in column 1 of a 96 deep well dilution plate and then carried across the row creating a 3.5 fold, 12 point dilution curve. • 4) Assay Buffer (50 μl aliquot) with or without HSA was added to each well in the assay plate. • 5) A 50 μl aliquot of compound or blank was transferred from the dilution plate to the assay plate containing the Assay Buffer with or without HSA. • 6) The assay plate was incubated for 3 h in a 5% CO2 incubator at 37° C. 7) The cells were washed once with DPBS. • 8) A 100 μl aliquot of DPBS was added to each well of the assay plate. • 9) A 100 μl aliquot of steadylite plus reagent (light sensitive) was added to each well of the assay plate. • 10) Each assay plate was covered with aluminum foil to protect it from light and shaken at 250 RPM for 30 min at room temperature. • 11) Each assay plate was read in a microtiter plate reader.
(§7) The data from the microtiter plate reader was first regressed in an Excel in order to calculate the x-axis, log scale concentrations based on the individual test compound's stock concentration and the dilutions of the assay. […] The software performs a non-linear regression (log(agonist) vs response). A minimum of two replicates was measured for each sample. The reported values are averages of the replicates.

[2] = biological target: T1, mouse GIP receptor (Mus musculus, UniProt Q0P543); experiment: cell-based
T1 sequence (Q0P543 19-460): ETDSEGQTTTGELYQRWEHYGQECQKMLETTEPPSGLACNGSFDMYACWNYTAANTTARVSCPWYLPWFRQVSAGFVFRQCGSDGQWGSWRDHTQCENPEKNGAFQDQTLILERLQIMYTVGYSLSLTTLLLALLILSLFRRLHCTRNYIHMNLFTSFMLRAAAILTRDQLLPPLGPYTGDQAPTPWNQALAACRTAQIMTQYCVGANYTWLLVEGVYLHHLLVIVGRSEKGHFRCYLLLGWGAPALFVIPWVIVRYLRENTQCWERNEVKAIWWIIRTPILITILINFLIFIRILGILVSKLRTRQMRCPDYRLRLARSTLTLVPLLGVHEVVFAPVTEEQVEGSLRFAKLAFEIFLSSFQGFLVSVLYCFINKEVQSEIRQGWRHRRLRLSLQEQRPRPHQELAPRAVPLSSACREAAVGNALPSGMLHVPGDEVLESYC
Method: as §1, §2, §3, §4, §5, §6, §7

[3] = biological target: human GLP-1 receptor (Homo sapiens, UniProt P43220); experiment: cell-based; settings: hGLP-1R
Method: as §1, §2, §3, §4, §5, §6, §7

[4] = biological target: T2, mouse GLP-1 receptor (Mus musculus, UniProt O35659)
T2 sequence (O35659 22-463): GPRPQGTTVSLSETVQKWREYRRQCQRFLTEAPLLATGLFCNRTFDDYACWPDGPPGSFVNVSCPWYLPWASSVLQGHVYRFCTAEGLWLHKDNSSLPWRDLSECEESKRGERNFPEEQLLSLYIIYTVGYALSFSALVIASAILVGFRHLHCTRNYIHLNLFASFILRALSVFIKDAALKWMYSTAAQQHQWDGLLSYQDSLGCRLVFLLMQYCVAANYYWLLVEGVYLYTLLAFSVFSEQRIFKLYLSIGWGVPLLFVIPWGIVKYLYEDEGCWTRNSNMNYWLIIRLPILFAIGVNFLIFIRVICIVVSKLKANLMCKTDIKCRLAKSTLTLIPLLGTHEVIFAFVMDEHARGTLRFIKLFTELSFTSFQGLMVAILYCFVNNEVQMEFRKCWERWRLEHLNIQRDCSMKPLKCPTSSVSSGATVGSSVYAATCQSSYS

Chain of human GLP-1 receptor (P43220 24-463): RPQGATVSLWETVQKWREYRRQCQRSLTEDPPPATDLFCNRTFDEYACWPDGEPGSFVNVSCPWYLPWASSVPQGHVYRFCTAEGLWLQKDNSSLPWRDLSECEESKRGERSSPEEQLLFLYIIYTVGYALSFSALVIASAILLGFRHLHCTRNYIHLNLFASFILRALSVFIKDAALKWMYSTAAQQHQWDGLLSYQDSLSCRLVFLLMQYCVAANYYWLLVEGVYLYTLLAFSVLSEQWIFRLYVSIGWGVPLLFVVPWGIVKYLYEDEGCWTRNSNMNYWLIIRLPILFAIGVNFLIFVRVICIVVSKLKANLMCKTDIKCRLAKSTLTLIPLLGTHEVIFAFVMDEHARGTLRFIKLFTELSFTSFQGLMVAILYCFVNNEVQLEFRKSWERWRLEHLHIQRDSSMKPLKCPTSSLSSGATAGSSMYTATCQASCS
Chain of human glucagon receptor (P47871 26-477): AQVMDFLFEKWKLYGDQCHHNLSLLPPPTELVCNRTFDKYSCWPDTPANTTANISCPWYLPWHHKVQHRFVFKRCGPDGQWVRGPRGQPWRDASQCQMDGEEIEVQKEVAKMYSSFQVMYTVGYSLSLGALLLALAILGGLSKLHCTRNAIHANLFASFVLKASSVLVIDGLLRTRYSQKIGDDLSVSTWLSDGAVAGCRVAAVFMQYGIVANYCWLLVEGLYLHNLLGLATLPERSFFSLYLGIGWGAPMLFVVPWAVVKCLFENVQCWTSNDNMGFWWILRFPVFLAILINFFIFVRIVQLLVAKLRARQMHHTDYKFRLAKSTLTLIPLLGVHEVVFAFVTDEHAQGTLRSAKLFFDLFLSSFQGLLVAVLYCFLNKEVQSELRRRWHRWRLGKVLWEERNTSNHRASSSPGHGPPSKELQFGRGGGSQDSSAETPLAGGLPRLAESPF

Row | Compound | EC50 [1] [nM] | EC50 [2] [nM] | EC50 ([3]; CRE Luc 0% HSA EC50, 0% HSA) [nM] | EC50 ([3]; CRE Luc 1% HSA EC50, 1% HSA) [nM] | EC50 [4] [nM]
1 | CC[C@H](C)[C@H](NC(=O)[C@H](CO)NC(=O)[C@H](Cc1ccc(O)cc1)NC(=O)[C@H](CC(=O)O)NC(=O)[C@H](CO)NC(=O)[C@@H](NC(=O)[C@H](Cc1ccccc1)NC(=O)[C@@H](NC(=O)CNC(=O)[C@H](CCC(=O)O)NC(=O)C(C)(C)NC(=O)[C@@H](N)Cc1ccc(O)cc1)[C@@H](C)O)[C@@H](C)O)C(=O)N[C@@H](Cc1ccc(O)cc1)C(=O)N[C@@H](CC(C)C)C(=O)N[C@@H](CCC(=O)O)C(=O)N[C@@H](CCCCN)C(=O)N[C@@H](CCC(N)=O)C(=O)N[C@@H](C)C(=O)N[C@@H](C)C(=O)NC(C)(C)C(=O)N[C@@H](CCCCNC(=O)[C@@H](N)CCCCNC(=O)[C@@H](N)CCCCNC(=O)CC[C@H](NC(=O)[C@H]1CC[C@H](CNC(=O)CCCCCCCCCCCCCCCCCCC(=O)O)CC1)C(=O)O)C(=O)N[C@@H](Cc1ccccc1)C(=O)N[C@H](C(=O)N[C@@H](CC(N)=O)C(=O)N[C@@H](Cc1c[nH]c2ccccc12)C(=O)N[C@@H](CC(C)C)C(=O)N[C@@H](CC(C)C)C(=O)N[C@@H](C)C(=O)NCC(=O)NCC(=O)N1CCC[C@H]1C(=O)N[C@@H](CO)C(=O)N[C@@H](CO)C(=O)NCC(=O)N[C@@H](C)C(=O)N1CCC[C@H]1C(=O)N1CCC[C@H]1C(=O)N1CCC[C@H]1C(=O)N[C@@H](CO)C(N)=O)C(C)C [Compound 16] (H-Y[Aib]EGTFTSDYSIYLEKQAA[Aib]K([εLys-εLys-γGlu-Trx-C20 diacid])FVNWLLAGGPSSGAPPPS-NH2; N-terminus assumed) | > 10 | 0.0169 | 0.0061 | 0.202 | 0.0035
2 | CC[C@H](C)[C@H](NC(=O)[C@H](CO)NC(=O)[C@H](Cc1ccc(O)cc1)NC(=O)[C@H](CC(=O)O)NC(=O)[C@H](CO)NC(=O)[C@@H](NC(=O)[C@H](Cc1ccccc1)NC(=O)[C@@H](NC(=O)CNC(=O)[C@H](CCC(=O)O)NC(=O)C(C)(C)NC(=O)[C@@H](N)Cc1ccc(O)cc1)[C@@H](C)O)[C@@H](C)O)C(=O)N[C@@H](Cc1ccc(O)cc1)C(=O)N[C@@H](CC(C)C)C(=O)N[C@@H](CCC(=O)O)C(=O)N[C@@H](CCCCN)C(=O)N[C@@H](CCC(N)=O)C(=O)N[C@@H](C)C(=O)N[C@@H](C)C(=O)NC(C)(C)C(=O)N[C@@H](CCCCNC(=O)[C@@H](N)CCCCNC(=O)[C@@H](N)CCCCNC(=O)CC[C@H](NC(=O)[C@H]1CC[C@H](CNC(=O)CCCCCCCCCCCCCCCCCCC(=O)O)CC1)C(=O)O)C(=O)N[C@@H](Cc1ccccc1)C(=O)N[C@H](C(=O)N[C@@H](CCC(N)=O)C(=O)N[C@@H](Cc1c[nH]c2ccccc12)C(=O)N[C@@H](CC(C)C)C(=O)N[C@@H](CC(C)C)C(=O)N[C@@H](CCC(=O)O)C(=O)NCC(=O)NCC(=O)N1CCC[C@H]1C(=O)N[C@@H](CO)C(=O)N[C@@H](CO)C(=O)NCC(=O)N[C@@H](C)C(=O)N1CCC[C@H]1C(=O)N1CCC[C@H]1C(=O)N1CCC[C@H]1C(=O)N[C@@H](CO)C(N)=O)C(C)C [Compound 24] (H-Y[Aib]EGTFTSDYSIYLEKQAA[Aib]K([εLys-εLys-γGlu-Trx-C20 diacid])FVQWLLEGGPSSGAPPPS-NH2; N-terminus assumed) | > 10 | 0.0405 | 0.0047 | 0.114 | 0.0099
3 | CC[C@H](C)[C@H](NC(=O)[C@H](CO)NC(=O)[C@H](Cc1ccc(O)cc1)NC(=O)[C@H](CC(=O)O)NC(=O)[C@H](CO)NC(=O)[C@@H](NC(=O)[C@H](Cc1ccccc1)NC(=O)[C@@H](NC(=O)CNC(=O)[C@H](CCC(=O)O)NC(=O)C(C)(C)NC(=O)[C@@H](N)Cc1ccc(O)cc1)[C@@H](C)O)[C@@H](C)O)C(=O)N[C@@H](Cc1ccc(O)cc1)C(=O)N[C@@H](CC(C)C)C(=O)N[C@@H](CC(=O)O)C(=O)N[C@@H](CCCCN)C(=O)N[C@@H](CCC(N)=O)C(=O)N[C@@H](C)C(=O)N[C@@H](C)C(=O)NC(C)(C)C(=O)N[C@@H](CCCCNC(=O)[C@@H](N)CCCCNC(=O)[C@@H](N)CCCCNC(=O)CC[C@H](NC(=O)[C@H]1CC[C@H](CNC(=O)CCCCCCCCCCCCCCCCCCC(=O)O)CC1)C(=O)O)C(=O)N[C@@H](Cc1ccccc1)C(=O)N[C@H](C(=O)N[C@@H](CC(N)=O)C(=O)N[C@@H](Cc1c[nH]c2ccccc12)C(=O)N[C@@H](CC(C)C)C(=O)N[C@@H](CC(C)C)C(=O)N[C@@H](C)C(=O)NCC(=O)NCC(=O)N1CCC[C@H]1C(=O)N[C@@H](CO)C(=O)N[C@@H](CO)C(=O)NCC(=O)N[C@@H](C)C(=O)N1CCC[C@H]1C(=O)N1CCC[C@H]1C(=O)N1CCC[C@H]1C(=O)N[C@@H](CO)C(N)=O)C(C)C [Compound 14] (H-Y[Aib]EGTFTSDYSIYLDKQAA[Aib]K([εLys-εLys-γGlu-Trx-C20 diacid])FVNWLLAGGPSSGAPPPS-NH2; N-terminus assumed) | > 10 | 0.0186 | 0.0114 | 0.377 | 0.006
4 | CC[C@H](C)[C@H](NC(=O)[C@H](CO)NC(=O)[C@H](Cc1ccc(O)cc1)NC(=O)[C@H](CC(=O)O)NC(=O)[C@H](CO)NC(=O)[C@@H](NC(=O)[C@H](Cc1ccccc1)NC(=O)[C@@H](NC(=O)CNC(=O)[C@H](CCC(=O)O)NC(=O)C(C)(C)NC(=O)[C@@H](N)Cc1ccc(O)cc1)[C@@H](C)O)[C@@H](C)O)C(=O)N[C@@H](Cc1ccc(O)cc1)C(=O)N[C@@H](CC(C)C)C(=O)N[C@@H](CC(=O)O)C(=O)N[C@@H](CCCCN)C(=O)N[C@@H](CCC(N)=O)C(=O)N[C@@H](C)C(=O)N[C@@H](C)C(=O)NC(C)(C)C(=O)N[C@@H](CCCCNC(=O)[C@@H](N)CCCCNC(=O)[C@@H](N)CCCCNC(=O)CC[C@H](NC(=O)CCCCCCCCCCCCCCCCCCC(=O)O)C(=O)O)C(=O)N[C@@H](Cc1ccccc1)C(=O)N[C@H](C(=O)N[C@@H](CC(N)=O)C(=O)N[C@@H](Cc1c[nH]c2ccccc12)C(=O)N[C@@H](CC(C)C)C(=O)N[C@@H](CC(C)C)C(=O)N[C@@H](C)C(=O)NCC(=O)NCC(=O)N1CCC[C@H]1C(=O)N[C@@H](CO)C(=O)N[C@@H](CO)C(=O)NCC(=O)N[C@@H](C)C(=O)N1CCC[C@H]1C(=O)N1CCC[C@H]1C(=O)N1CCC[C@H]1C(=O)N[C@@H](CO)C(N)=O)C(C)C [Compound 13] (H-Y[Aib]EGTFTSDYSIYLDKQAA[Aib]K([εLys-εLys-γGlu-C20 diacid])FVNWLLAGGPSSGAPPPS-NH2; N-terminus assumed) | > 10 | 0.057 | 0.0124 | 0.103 | 0.0054
5 | CC[C@H](C)[C@H](NC(=O)[C@H](CO)NC(=O)[C@H](Cc1ccc(O)cc1)NC(=O)[C@H](CC(=O)O)NC(=O)[C@H](CO)NC(=O)[C@@H](NC(=O)[C@H](Cc1ccccc1)NC(=O)[C@@H](NC(=O)CNC(=O)[C@H](CCC(=O)O)NC(=O)C(C)(C)NC(=O)[C@@H](N)Cc1ccc(O)cc1)[C@@H](C)O)[C@@H](C)O)C(=O)N[C@@H](Cc1ccc(O)cc1)C(=O)N[C@@H](CC(C)C)C(=O)N[C@@H](CCC(=O)O)C(=O)N[C@@H](CCCCN)C(=O)N[C@@H](CCCCNC(=O)[C@@H](N)CCCCNC(=O)[C@@H](N)CCCCNC(=O)CC[C@H](NC(=O)CCCCCCCCCCCCCCCCCCC(=O)O)C(=O)O)C(=O)N[C@@H](C)C(=O)N[C@@H](C)C(=O)NC(C)(C)C(=O)N[C@@H](CCC(=O)O)C(=O)N[C@@H](Cc1ccccc1)C(=O)N[C@H](C(=O)N[C@@H](CC(N)=O)C(=O)N[C@@H](Cc1c[nH]c2ccccc12)C(=O)N[C@@H](CC(C)C)C(=O)N[C@@H](CC(C)C)C(=O)N[C@@H](C)C(=O)NCC(=O)NCC(=O)N1CCC[C@H]1C(=O)N[C@@H](CO)C(=O)N[C@@H](CO)C(=O)NCC(=O)N[C@@H](C)C(=O)N1CCC[C@H]1C(=O)N1CCC[C@H]1C(=O)N1CCC[C@H]1C(=O)N[C@@H](CO)C(N)=O)C(C)C [Compound 31] (H-Y[Aib]EGTFTSDYSIYLEKK([εLys-εLys-γGlu-C20 diacid])AA[Aib]EFVNWLLAGGPSSGAPPPS-NH2; N-terminus assumed) | 9.6 | 0.0134 | 0.0019 | 0.0543 | 0.0013
